In patent US9708274B2, “Sulfoximine substituted quinazolines for pharmaceutical compositions” (EVOTEC INTERNATIONAL GMBH, priority 2013, dated 2017):

Experiments:
[1] = tested on: cell culture cells, transfected with MNK2 (MNK2a or MNK2b) or MNK1; settings: addition to cell culture cells transfected with MNK2 (MNK2a or MNK2b) or MNK1; cited from earlier work
[2] = target: MNK2a (Homo sapiens (Human), UniProt Q9HBH9); experiment: MNK2a in vitro kinase assay (Assay 2), ADP-Glo; format: biochemical; settings: read-out: MNK2 IC50
Sequence of MNK2a (Q9HBH9 whole entry): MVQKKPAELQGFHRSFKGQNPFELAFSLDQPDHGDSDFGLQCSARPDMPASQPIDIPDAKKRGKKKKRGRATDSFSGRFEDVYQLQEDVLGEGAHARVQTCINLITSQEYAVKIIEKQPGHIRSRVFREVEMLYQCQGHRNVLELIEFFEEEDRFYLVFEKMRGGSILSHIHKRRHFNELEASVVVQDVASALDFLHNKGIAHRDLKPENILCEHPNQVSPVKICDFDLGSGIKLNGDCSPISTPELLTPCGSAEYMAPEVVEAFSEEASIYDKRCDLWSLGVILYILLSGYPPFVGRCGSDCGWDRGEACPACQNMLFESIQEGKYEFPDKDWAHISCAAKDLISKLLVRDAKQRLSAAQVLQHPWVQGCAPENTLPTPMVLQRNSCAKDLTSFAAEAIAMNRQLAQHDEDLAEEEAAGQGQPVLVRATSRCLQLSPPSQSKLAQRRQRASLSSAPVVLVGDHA
Protocol: The white, 384-well OptiPlate F plates were purchased from PerkinElmer. The ADP-Glo Kinase Assay (including ultra pure ATP) was purchased from Promega (V9103). Activated MNK2a was obtained as described in WO2011/104340. […] All other materials were of highest grade commercially available. Compounds are tested in either serial dilutions or single dose concentrations. The compound stock solutions are 10 mM in 100% DMSO The serial compound dilutions are prepared in 100% DMSO followed by 1:27.3 intermediate dilution in assay buffer. The final DMSO concentration in assay will be <3%.
In the 384-well plates 3 μl of test compound from the intermediate dilution is mixed with 4 μl of the activated MNK2 enzyme (final concentration of 10 nM) and 4 μl of the peptide (final concentration of 25 μM)/ultra pure ATP (final concentration of 20 μM), all dissolved in assay buffer. This step is followed by an incubation time of 90 min, then 10 μl of ADP Glo reagent are added, followed by 40 min of incubation. Then 20 μl of kinase detection reagent are admixed. The plates are sealed and after an incubation period of 30 min, the luminescence signal is measured in an Envision reader to determine the amount of produced ADP. All incubation steps are performed at room temperature. […]
IC50 values based on dose response curves are calculated with the AssayExplorer software.

[3] = target: MNK1a (Homo sapiens (Human), UniProt Q9BUB5); experiment: MNK1 in vitro kinase assay (Assay 3), Z'-LYTE; format: biochemical; settings: compound concentration of 1 μM
Sequence of MNK1a (Q9BUB5 other isoform, or with tags, fused parts or gaps): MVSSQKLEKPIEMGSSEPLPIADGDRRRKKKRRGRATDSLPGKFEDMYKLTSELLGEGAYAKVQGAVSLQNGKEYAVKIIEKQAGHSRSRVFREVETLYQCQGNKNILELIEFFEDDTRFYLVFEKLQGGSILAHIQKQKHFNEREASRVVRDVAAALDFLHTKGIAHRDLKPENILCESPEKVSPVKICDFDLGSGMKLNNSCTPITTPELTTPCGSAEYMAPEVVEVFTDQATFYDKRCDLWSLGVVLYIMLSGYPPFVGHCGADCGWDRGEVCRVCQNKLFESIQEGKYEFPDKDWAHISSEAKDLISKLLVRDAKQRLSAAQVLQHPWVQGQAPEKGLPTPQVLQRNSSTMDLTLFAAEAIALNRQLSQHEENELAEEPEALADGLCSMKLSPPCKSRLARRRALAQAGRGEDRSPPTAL
Text: C. MNK1 In Vitro Kinase Assay (Assay 3)
MNK1 Data can be obtained from the MNK1 Z′-LYTE® assay. The MNK1 Z′-LYTE® screening protocol and assay conditions are also described on www.invitrogen.com.
The assay is described as follows:
The Z′-LYTE® biochemical assay employs a fluorescence-based, coupled-enzyme format and is based on the differential sensitivity of phosphorylated and non-phosphorylated peptides to proteolytic cleavage. The peptide substrate is labeled with two fluorophores—one at each end—that make up a FRET pair.
In the primary reaction, the kinase transfers the gamma-phosphate of ATP to a single tyrosine, serine or threonine residue in a synthetic FRET-peptide. In the secondary reaction, a site-specific protease recognizes and cleaves non-phosphorylated FRET-peptides. Phosphorylation of FRET-peptides suppresses cleavage by the Development Reagent. […] A ratiometric method, which calculates the ratio (the Emission Ratio) of donor emission to acceptor emission after excitation of the donor fluorophore at 400 nm, is used to quantitate reaction progress, as shown in the equation below.
ASSAY SETUP: The inhibition of kinase activity of MNK1a was assessed using pre-activated GST-MNK1a. […]
9. Read on fluorescence plate reader and analyze the data […]

## Nc1ncnc2n[nH]c(Nc3ccc(F)cc3)c12 [CGP57380]
[1]
  reduction of phosphorylated eIF4E: strong reduction of phosphorylated eIF4E

## C[C@@H](Oc1cc(F)ccc1Nc1ncnc2cc(N=S3(=O)CCC3)cc(F)c12)C(=O)NCCC(F)(F)F [Example 4.108]
[2]
  IC50: 2 nM

## C[C@H](NC(=O)[C@@H](C)Oc1cc(F)ccc1Nc1ncnc2cc(N=S3(=O)CCC3)cc(F)c12)C(F)(F)F [Example 4.136]
[3]
  MNK1 % INH: 93%
